Measured values as given in BigSolDB 2.1.

CC1(C)O[C@H]2CC(=O)OC[C@]23[C@H]2CC[C@@]4(C)[C@H](c5ccoc5)OC(=O)[C@H]5O[C@]54[C@]2(C)C(=O)C[C@@H]13
solubility (mole fraction)
Conditions | 283.2 K | 288.2 K | 293.2 K | 298.2 K | 303.2 K | 308.2 K | 313.2 K | 318.2 K
in acetone | 0.00409 | 0.00454 | 0.00465 | 0.00471 | 0.00474 | 0.00497 | 0.00516 | 0.0055
in methanol | 7.08e-05 | 7.81e-05 | 9.2e-05 | 0.000101 | 0.00012 | 0.000137 | 0.000162 | 0.000192
in water | 1.17e-07 | 2.37e-07 | 4.77e-07 | 5.97e-07 | 8.3e-07 | 1.04e-06 | 1.17e-06 | 1.49e-06
